# Experimental data from article PMC2765124 (Drug and alcohol dependence, 2009).
# “Also recorded” adds a separate entry of the source.
# Tests used:
# [1] = test system: acetic acid-induced abdominal stretching in male ICR mice; assay: acetic acid stretching test; format: in vivo, mouse; settings: for antinociceptive effect given alone (abdominal stretching): 1 h before acetic acid; for blockade of the antinociceptive effects of Δ9-THC by THCV: THCV 50 mg/kg s.c. with Δ9-THC 3.0 mg/kg s.c.; for effect on abdominal stretching given alone: 3 mg/kg i.p.; for blockade of the antinociceptive effects of Δ9-THC: antagonist 3 mg/kg i.p. 10 min before Δ9-THC 3 mg/kg s.c.
# [2] = test system: locomotor activity of male ICR mice; assay: spontaneous locomotor activity; format: in vivo, mouse; settings: for % Time Immobile / Total Distance Traveled: 60 min before, 20 min, mean ± SEM
# [3] = biological target: CB1 receptor (Rattus norvegicus, UniProt P20272); assay: cannabinoid receptor binding, displacement of [3H]-CP-55,940 from whole brain
# CB1 receptor, sequence (P20272 whole entry): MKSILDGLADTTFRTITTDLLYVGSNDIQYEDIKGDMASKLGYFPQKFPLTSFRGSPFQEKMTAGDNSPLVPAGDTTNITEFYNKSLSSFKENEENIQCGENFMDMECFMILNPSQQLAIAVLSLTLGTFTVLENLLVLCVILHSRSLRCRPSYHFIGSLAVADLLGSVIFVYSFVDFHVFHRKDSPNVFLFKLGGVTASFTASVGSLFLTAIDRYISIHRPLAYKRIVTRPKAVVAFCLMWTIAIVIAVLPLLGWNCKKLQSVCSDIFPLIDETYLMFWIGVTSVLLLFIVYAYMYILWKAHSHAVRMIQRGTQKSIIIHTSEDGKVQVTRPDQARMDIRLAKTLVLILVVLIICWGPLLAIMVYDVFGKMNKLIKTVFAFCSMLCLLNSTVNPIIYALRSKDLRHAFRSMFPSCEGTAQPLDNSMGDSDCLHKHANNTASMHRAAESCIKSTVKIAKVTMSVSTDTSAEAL
molecule,measurement,setting,value
"CCCCCc1cc(O)c2c(c1)OC(C)(C)[C@@H]1CCC(C)=C[C@@H]21 [Δ^9-THC, Δ^9-tetrahydrocannabinol]",ED50,"[1]; Mus musculus, read-out: ED50, suppression of abdominal stretching",1.1 mg/kg
same,minimal (required) dose that produced antinociception,[1]; s.c.,1 mg/kg
same,% Time Immobile,[2]; 1.0 mg/kg s.c.,11.2 ± 2.2%
same,Total Distance Traveled,[2]; 1.0 mg/kg s.c.,41.79 ± 2.63 m
same,% Time Immobile,[2]; 3.0 mg/kg s.c.,21.5 ± 5.0%
same,Total Distance Traveled,[2]; 3.0 mg/kg s.c.,43.59 ± 4.70 m
same,effect on locomotor activity,"[2]; 3 mg/kg s.c., 60 min pretreatment, compared to vehicle",did not significantly interfere with locomotor activity
same,% Time Immobile,[2]; 10.0 mg/kg s.c.,37.6 ± 9.2%
same,Total Distance Traveled,[2]; 10.0 mg/kg s.c.,45.86 ± 7.76 m
same,% Time Immobile,[2]; 50.0 mg/kg s.c.,49.0 ± 6.8 %
same,Total Distance Traveled,[2]; 50.0 mg/kg s.c.,35.34 ± 3.61 m
same,effect on mobility,[2]; doses less than 50 mg/kg s.c.,did not impair mobility
"C=C(C)[C@@H]1CCC(C)=C[C@H]1c1c(O)cc(CCCCC)cc1O [CBD, cannabidiol]",antinociceptive effect given alone (abdominal stretching),"[1]; high doses, s.c.",did not produce antinociceptive effects
"CCCCCc1cc(O)c2c(c1)OC(C)(CCC=C(C)C)C=C2 (centres unmarked) [CBC, cannabichromene]",antinociceptive effect given alone (abdominal stretching),"[1]; high doses, s.c.",did not produce antinociceptive effects
"CCCc1cc(O)c2c(c1)OC(C)(C)[C@@H]1CC=C(C)C[C@@H]21 [THCV, Δ^8-tetrahydrocannabivarin]",antinociceptive effect given alone (abdominal stretching),[1]; 50 mg/kg s.c.,had no affect on the frequency of stretching behavior; also recorded: failed to elicit antinociceptive effects; also recorded: had no effects on its own
same,blockade of the antinociceptive effects of Δ9-THC by THCV,[1],blocked the antinociceptive effects of Δ^9-THC
same,blockade of the antinociceptive effects of Δ9-THC by THCV,[1]; listed as THC-V,significantly antagonized the antinociceptive effects
SR144528,effect on abdominal stretching given alone,[1],did not significantly affect abdominal stretching behavior; also recorded: Neither
Cc1c(C(=O)NN2CCCCC2)nn(-c2ccc(Cl)cc2Cl)c1-c1ccc(Cl)cc1 [rimonabant],effect on abdominal stretching given alone,[1],did not significantly affect abdominal stretching behavior; also recorded: Neither
same,blockade of the antinociceptive effects of CBN,[1]; antagonist 3 mg/kg i.p. 10 min before CBN 50 mg/kg s.c.,blocked by rimonabant; also recorded: significantly blocked the antinociceptive effects
same,blockade of the antinociceptive effects of Δ9-THC,[1],blocked the antinociceptive effects
same,blockade of the antinociceptive effects of Δ9-THC,[1]; listed as Rimonabant,significantly blocked
"CCCCCc1cc(O)c2c(c1)OC(C)(C)c1ccc(C)cc1-2 [CBN, cannabinol]",antinociceptive effect given alone (abdominal stretching),[1]; 20 mg/kg s.c.,not at 20 mg/kg
same,antinociceptive effect given alone (abdominal stretching),[1]; 50 mg/kg s.c.,significant antinociceptive effects; also recorded: significantly suppressed the stretching response
same,minimal (required) dose that produced antinociception,[1]; s.c.,50 mg/kg
same,effect on locomotor activity,"[2]; 50 mg/kg s.c., 60 min before recording",failed to inhibit locomotor activity; also recorded: did not affect mobility
same,% Time Immobile,[2]; 50.0 mg/kg s.c.,17.6 ± 2.9%
same,Total Distance Traveled,[2]; 50.0 mg/kg s.c.,39.02 ± 7.75 m
same,"affinity at the CB1 receptor, fold lower than the affinity of Δ9-THC",[3],2–3 fold
